Assay results published in paper PMC6290463 (The FEBS journal, 2012).
Non-standard residues stand in square brackets, D forms with d. Residues, ends and D or L forms follow the SMILES beside them. *: point of attachment. Sta = CC(C)C[C@H](N)[C@@H](O)CC(=O)O; Isovaleryl = CC(C)CC(=O)*

How the values were obtained:
XMRV PR [1] = biological target: T1, XMRV PR (Xenotropic MuLV-related virus VP62, UniProt A1Z651); test: HPLC-based cleavage assay with peptide RSLLY-PALTP; format: biochemical; details: read-out: XMRV PR Ki; cited from earlier work
T1 sequence (A1Z651 533-657): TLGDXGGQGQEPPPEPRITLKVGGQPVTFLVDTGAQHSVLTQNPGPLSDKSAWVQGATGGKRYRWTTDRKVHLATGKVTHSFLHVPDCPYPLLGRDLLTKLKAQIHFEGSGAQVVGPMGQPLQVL

XMRV PR [2] = biological target: T1, XMRV PR; details: previous study; cited from earlier work
XMRV PR [3] = biological target: T1, XMRV PR; details: PDB 3SM1; cited from earlier work
HIV-1 PR = HIV-1 PR (Human immunodeficiency virus type 1 group M subtype B, UniProt P04585, C555A/C583A/L521I/L551I/Q495K); test: Urea dissociation of HIV-1 PR; format: physicochemical; details: half-maximal velocity; urea 0–4.0 M, 5.5 nM HIV-1 PR, 0.3 mM substrate, HPLC

## CC(C)CC(=O)N[C@H](C(=O)N[C@H](C(=O)N[C@@H](CC(C)C)[C@@H](O)CC(=O)N[C@@H](C)C(=O)N[C@@H](CC(C)C)[C@@H](O)CC(=O)O)C(C)C)C(C)C [Pepstatin A, pepstatin A (isovaleryl-Val-Val-Sta-Ala-Sta)] (Isovaleryl-VV[Sta]A[Sta]-OH)
XMRV PR [1]
  Ki: 1440 nM

## CC(C)CC(=O)N[C@H](C(=O)N[C@H](C(=O)N[C@@H](CC(C)C)[C@@H](O)CC(=O)N[C@@H](C)C(=O)N[C@@H](CC(C)C)[C@@H](O)CC(=O)O)C(C)C)C(C)C [Pepstatin A, pepstatin A] (Isovaleryl-VV[Sta]A[Sta]-OH)
XMRV PR [2]
  Inhibition of XMRV PR (in words): only a very weak inhibitor of XMRV PR
XMRV PR [3]
  binding mode to XMRV PR (crystal structure): two inhibitor molecules binding to the enzyme, leaving the catalytic water in place

## HIV-1 PR: Purified HIV-1 PR, containing stabilizing mutations (Q7K, L33I, L63I, C67A and C95A)
HIV-1 PR
  Urea dissociation (UC50): 1.47 M
